Measured values taken from BindingDB's records for PubMed 35777269 (University of Maryland, 2022).

Target: Protein Wnt-3a (Human, UniProt P56704)
Test: Inhibition of recombinant human Wnt3a in HEK293 cells assessed as Wnt signalling by measuring reduction in relative luminescence units incubated for 24 hrs by luciferase reporter assay

Sequence of Protein Wnt-3a (P56704 whole entry): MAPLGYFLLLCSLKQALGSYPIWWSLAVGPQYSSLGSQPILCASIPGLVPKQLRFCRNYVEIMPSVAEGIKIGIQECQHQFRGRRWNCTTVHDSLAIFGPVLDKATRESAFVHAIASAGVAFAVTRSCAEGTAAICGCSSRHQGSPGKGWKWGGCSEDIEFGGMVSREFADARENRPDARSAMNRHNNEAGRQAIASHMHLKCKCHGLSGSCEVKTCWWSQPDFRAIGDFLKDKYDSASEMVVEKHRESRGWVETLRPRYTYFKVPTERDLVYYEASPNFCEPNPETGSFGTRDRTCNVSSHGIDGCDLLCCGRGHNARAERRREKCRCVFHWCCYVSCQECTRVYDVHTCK

SMILES: Cc1ccccc1-n1nnc(C(=O)Nc2ccc3ccccc3n2)c1C
- IC50: 4.1 nM
